Assay results taken from US9220794B2, “Two-photon fluorescent probes for imaging of total sulfide in live cell and tissue, and quantitative estimation of total sulfide concentration using the same” (Korea University Research and Business Foundation, priority 2013, dated 2015).

Key:
[1] = Selectivity for sulfide: ratiometric response (F2/F1) in the presence of various analytes
Method: The ratio of fluorescence intensities (F2/F1) measured at a short wavelength (F1) and a long wavelength (F2) at 0, 60 and 120 min is shown. All the data were obtained at 37° C. in HEPES buffer. Excitation wavelengths for one-photon and two-photon processes were 370 nm (short wavelength) and 750 nm (long wavelength), respectively.
To test whether the compound of [Chemical Formula 2-6] can selectively detect HS^− over other biologically relevant species, the ratiometric response of the compound of [Chemical Formula 2-6] was determined in the presence of various analytes.

[2] = Kinetic studies in solution: reaction of the probe with sulfide
Source text: The reaction between the compound of [Chemical Formula 2-6] […] For example, the compound of [Chemical Formula 2-6] was synthesized from the reaction of the compound of [Chemical Formula 2-5] and HS^−. Also, precipitation of sulfur or sulfide was reported in the reaction between phenyl azide and Na2S.
This followed pseudo first-order kinetics with kobs=2.89×10^−4 s^−1 (FIG. 1b).
The k2 value calculated from the slope of the plot was 5.13 M^−1s^−1 (measured in HEPES buffer).
Reactions of the compound of [Chemical Formula 2-6] (5 μM) with Na2S (100-500 μM) in HEPES buffer or HEPES/EtOH (1/1, pH 7.2) were followed by monitoring of the increase in the fluorescence of the compound of [Chemical Formula 2-5] at 525-650 nm using a luminescence spectrometer.
The kinetic studies in a TP mode were conducted by the same procedure described above except that the TPEF was collected upon excitation at 750 nm.
In all cases, the plots of −ln(F^∞2−F2) vs. t were linear with good correlations. The kobs values were obtained from the slopes of the plots and the K2 values were obtained from the slopes of the plots of kobs vs. [HS^−]. [HS^−] was calculated by assuming that all of the Na2S was converted to HS^− and H2S, that is, [Na2S]=[H2S]+[HS^−], and using the relationship [H2S]/[HS^−]=[H^+]/Ka=0.794 in HEPES/EtOH (1/1, pH=7.2).

[3] = One-photon absorption and emission spectra, fluorescence quantum yield; format: physicochemical; settings: for 10^−4 ε: value is ε×10^−4
Method: The solvatochromic effect observed for the compound of [Chemical Formula 2-6] may have resulted from the […] dipole moment.
Absorption spectra were recorded on the Hewlett-Packard 8453 diode array spectrophotometer and fluorescence spectra were obtained with the Amico-Bowman series 2 luminescence spectrometer with a 1-cm standard quartz cell.

HeLa cells [4] = experiment: Cell viability, CCK-8 kit; format: cell-based, human; settings: incubation condition
HeLa cells [5] = experiment: Photostability of TPEF intensity in labeled HeLa cells; format: cell-based, human; settings: continuous radiation of fs-pulses for 60 minutes
Source text: These findings confirm that the compound of [Chemical Formula 2-6] can measure the total sulfide concentration in living cells by the kinetic method with minimum interference from cytotoxicity and photostability.

rat colon tissue = experiment: Kinetic measurement of total sulfide in rat colon tissue slices; format: in vivo; settings: before 5-FU treatment; for total sulfide concentration in colon tissue: probe 2-6; for kobs in colon tissue: tissue labeled with 2-6
Method: To quantitatively estimate the total sulfide concentration, kinetic experiments were performed in the colon tissue labeled with the compound of [Chemical Formula 2-6].
Male Sprague-Dawley rats (235-265 g) were divided into two groups (5-FU and control groups). In the 5-FU group, 150 mg/kg of 5-FU (SoloPak Laboratories, Franklin Park, Ill.) were intraperitoneally injected into the rats. The rats of the control group were injected with saline. Each group consisted of 4 rats.
8 hours after the intraperitoneal injection, all the rats were sacrificed. Laparotomy was performed after anesthetizing the rats.
Kinetic experiments in rat colon tissue were performed using four colon slices obtained from four rats. Two sets of experiments were performed for each slice. In each set, TPEF intensities from 8 ROI's/section were collected at depths of 90-150 μm (mucosa) and 151-170 μm (submucosa) in the colon tissue labeled with the compound of [Chemical Formula 2-6] and averaged.
The rate constant (kobs) was measured from 7 and 3 sections of the mucosa and submucosa tissues, respectively, in order to obtain 112 kobs and 48 kobs values, respectively. The rate constant (kobs) was expressed as mean±SD and p was set to be smaller than 0.05.

[6] = HEPES buffer (20 mM HEPES, 100 mM KCl, pH 7.4)

Δλmax, shift of absorption spectrum with solvent polarity ([3]; 1,4-dioxane to HEPES buffer): 8 nm
Δλ^FImax, shift of emission spectrum with solvent polarity ([3]; 1,4-dioxane<DMF<EtOH<HEPES/EtOH (1/1)<HEPES buffer): 31 nm
Φ, fluorescence quantum yield ([3]; EtOH): 0.87
λ^(1)max, one-photon absorption maximum ([3]; EtOH): 354 nm
λ^flmax, one-photon emission maximum ([3]; EtOH): 437 nm
10^−4 ε ([3]; EtOH): (4.27) M^−1cm^−1
Φ, fluorescence quantum yield ([3]; HEPES buffer): 0.013
λ^(1)max, one-photon absorption maximum [3, 6]: 360 nm
λ^flmax, one-photon emission maximum [3, 6]: 444 nm
ε at maximum absorption ([3]; HEPES buffer, pH 7.4): 25000 M⁻¹ cm⁻¹
Φ, fluorescence quantum yield ([3]; HEPES/EtOH (1/1)): 0.41
λ^(1)max, one-photon absorption maximum ([3]; HEPES/EtOH (1/1)): 352 nm
λ^flmax, one-photon emission maximum ([3]; HEPES/EtOH (1/1)): 440 nm
10^−4 ε ([3]; HEPES/EtOH (1/1)): (4.11) M^−1cm^−1
10^−4 ε ([3]; HEPES): (2.50) M^−1cm^−1
photostability (decay of TPEF intensity) (HeLa cells [5]): high photostability
Structure (SMILES): COCCOCCC1(CCOCCOC)c2cc(NC(=O)OCc3ccc(N=[N+]=[N-])cc3)ccc2-c2ccc(-c3nc4ccccc4s3)cc21 [Chemical Formula 2-6]
reactivity toward other biologically relevant species ([1]; 10 mM GSH, 1 mM Cys, 1 mM 2-ME, RSS, RNS, ROS, Ala, Glu, metal ions): no reactivity
increase of relative fluorescence intensity ratio (F2/F1) ([1]; 100 mM Na2S (55.7 mM HS^−), HEPES buffer): 110 fold
F2/F1 after deazidation ([1]; HEPES buffer): 110
reactivity toward commercially available GSH ([1]; commercially available GSH): small reactivity
reactivity toward purified GSH ([1]; purified GSH): no reactivity
k2, second-order rate constant of reaction with HS^− ([2]; HEPES buffer, slope of kobs vs. [HS^−]): 5.13 M⁻¹ s⁻¹
k2, second-order rate constant of reaction with HS^− ([2]; HEPES/EtOH (1/1, pH=7.2), calculated using pKa (H2S)=7.10): 5.17 M⁻¹ s⁻¹
influence of p-dinitrobenzene (electron acceptor) on kobs ([2]; addition of p-dinitrobenzene): not influenced
kobs, pseudo first-order rate constant ([2]; probe 5 μM + 100 μM Na2S, HEPES buffer, 37° C.): 0.000289 s⁻¹
toxicity (CCK-8 kit) (HeLa cells [4]): negligible toxicity
total sulfide concentration in colon tissue (rat colon tissue; mucosa): 7.0 ± 2.7 µM
kobs in colon tissue (rat colon tissue; mucosa): (2.0±0.8)×10^−5 s^−1
total sulfide concentration in colon tissue (rat colon tissue; submucosa): 3.8 ± 1.4 µM
kobs in colon tissue (rat colon tissue; submucosa): (1.1±0.5)×10^−5 s^−1
